Consider 3 compounds from article PMC6121902, “Conjugation with Dihydrolipoic Acid Imparts Caffeic Acid Ester Potent Inhibitory Effect on Dopa Oxidase Activity of Human Tyrosinase” (International Journal of Molecular Sciences, 2018).

The test system of data set [1] is HBL cells. The experiment in a line: MTT viability assay. It counts as cell-based, human. Conditions: 24 h; for cytotoxicity (MTT): 25 or 50 μM. How it is done:
(§1) The effect of the inhibitors on cell viability was evaluated by phase contrast microscopy and by means of the 3-(4,5-dimethyl-2-thiazolyl)-2,5-diphenyl-2H-tetrazolium bromide (MTT) assay. HBL cells were treated with the compounds (25 or 50 μM) for 24 h. At the end of the incubation period, phase contrast images were taken and the MTT assay was performed to test the cytotoxicity of each compound.
(§2) Figure 4 Effect of caffeic acid derivatives on the viability of HBL cells. Cells were incubated for 24 h with the inhibitors at 25 or 50 µM. (a) Phase contrast microscopy images. Representative images are shown (n = 8) Bar size: 50 μm. (b) MTT viability assay. Cells were grown in 96-well plates to ~80% confluence in the presence or absence of the indicated compounds. After 24 h, MTT was added (1 mg/mL final concentration) and maintained in the culture media for 4 h. Cells were PBS-washed twice and solubilized in DMSO. Absorbance at 562 nm was measured and represented as a percentage of the control value. The mean ± SEM of 8 independent experiments is shown. **** p < 0.0001.
Cell viability was measured by the MTT assay. HBL cells were seeded into the wells of a 96-wells plate at a density of 10,000 cells in 200 μL cell culture media. The seeded cells were incubated for 18 h at 37 °C, then treated with the compounds (25 or 50 μM) for 24 h or left untreated. At the end of the incubation period, images were taken and the MTT assay was performed to test the cytotoxicity of the different caffeic acid derivatives.
For orientation: Tetrazolium dyes change colour on reduction, which living cells bring about.

Data set [2] has as its system mushroom tyrosinase. Also on record: method as in PMID 31105178. The settings on record: cited from earlier work.
For data set [3], the target named is mushroom tyrosinase. The experiment in a line: Mushroom tyrosinase DO activity inhibition (dopachrome formation at 475 nm, L-DOPA substrate). Type of data set: biochemical. Conditions: 10 min pre-incubation, L-DOPA 1 mM, tyrosinase 20 U/mL, pH 6.8. As for the experimental part: (§3) The inhibition properties of LCAME were preliminarily investigated on mushroom tyrosinase by spectrophotometric monitoring of dopachrome formation, a method which is routinely used for evaluation of the activity of potential tyrosinase inhibitors. L-DOPA was used as the substrate to test DO activity while L-tyrosine was used to test TH activity. LCAME was incubated in 50 mM phosphate buffer in the presence of mushroom tyrosinase (20 U/mL) at room temperature. After 10 min, L-DOPA or L-tyrosine (1 mM final concentration) were added and the absorbance at 475 nm was measured at different times over 10 min. For comparative purposes the effects of CAME were evaluated as well. Stock methanolic solutions of LCAME or CAME, ranging in concentration from 0.02 to 20 mM concentration were prepared dissolving a proper amount of the compound of interest in methanol. 100 μL of these solutions were added to 2 mL of 50 mM phosphate buffer at pH 6.8 (final concentrations range: 0.001–1 mM), in the presence or in the absence of 20 U/mL mushroom tyrosinase. After 10 min incubation at room temperature, 20 μL of a 100 mM solution of L-DOPA or L-tyrosine in 0.6 M HCl, were added (final concentration: 1 mM). Spectrophotometric analysis was performed by measuring the absorbance at 475 nm for 10 min at 2 min intervals. In control experiments, the reaction was run in the absence of LCAME. When required, the experiment was performed as above but adding L-DOP A soon after the addition of LCAME (0.050 μM). In separate experiments, the assay was run as above with LCAME or CAME at 100 μM, in the presence or absence of L-DOPA, and after 10 min the mixture was analyzed by HPLC.

The target in data set [4] is mushroom tyrosinase. The data set is described as follows: Mushroom tyrosinase TH activity inhibition (dopachrome formation at 475 nm, L-tyrosine substrate). It counts as biochemical. Conditions: 10 min pre-incubation, L-tyrosine 1 mM, tyrosinase 20 U/mL, pH 6.8. How it is done:
as §3, with “After 10 min incubation at room temperature, 20 μL of a 100 mM solution of L-DOPA or L-tyrosine in 0.6 M HCl, were added (final concentration: 1 mM).” left out, “In control experiments, the reaction was run in the absence of LCAME. When required, the experiment was performed as above but adding L-DOP A soon after the addition of LCAME (0.050 μM).” left out

Data set [5] relates to mushroom tyrosinase. The data set is described as follows: Consumption of inhibitor by mushroom tyrosinase (substrate test, HPLC). Type of data set: biochemical. The settings on record: 100 μM, 10 min. As for the experimental part: Some tyrosinase inhibitors are also substrates of the enzyme and this is a critical issue because their oxidation can lead to the formation of highly reactive, cytotoxic o-quinones. To rule out this possibility, either LCAME or CAME at 100 μM were exposed to mushroom tyrosinase, in the absence of L-DOPA, and after 10 min, the reaction mixtures were analyzed by HPLC. […] HPLC analyses for determination of the consumption of CAME and LCAME in the presence of mushroom tyrosinase were performed on a Agilent 1100 binary pump instrument equipped with a UV-visible detector using an octadecylsilane-coated column, 250 mm × 4.6 mm, 5 μm particle size (Phenomenex Sphereclone ODS, Bologna, Italy) at 0.7 mL/min, using the following gradient: 0.1% formic acid (eluant a)/ methanol (eluant b): 40% b, 0–10 min; from 40 to 80% b, 47.5–52.5 min; from 80 to 40% b, 52.5–57.5 min. Detection wavelength was set at 280 nm. Stock methanolic solutions of LCAME or CAME, ranging in concentration from 0.02 to 20 mM concentration were prepared dissolving a proper amount of the compound of interest in methanol. 100 μL of these solutions were added to 2 mL of 50 mM phosphate buffer at pH 6.8 (final concentrations range: 0.001–1 mM), in the presence or in the absence of 20 U/mL mushroom tyrosinase. After 10 min incubation at room temperature, 20 μL of a 100 mM solution of L-DOPA or L-tyrosine in 0.6 M HCl, were added (final concentration: 1 mM). Spectrophotometric analysis was performed by measuring the absorbance at 475 nm for 10 min at 2 min intervals. In control experiments, the reaction was run in the absence of LCAME. When required, the experiment was performed as above but adding L-DOP A soon after the addition of LCAME ([…]). In separate experiments, the assay was run as above with LCAME or CAME at 100 μM, in the presence or absence of L-DOPA, and after 10 min the mixture was analyzed by HPLC.

For data set [6], the system named is HBL cells. The data set is described as follows: Phase contrast microscopy of cell morphology. It counts as cell-based, human. Conditions: 50 μM, 24 h. As for the experimental part: as §1, §2
Cell viability was measured by the MTT assay. HBL cells were seeded into the wells of a 96-wells plate at a density of 10,000 cells in 200 μL cell culture media. The seeded cells were incubated for 18 h at 37 °C, then treated with the compounds (25 or 50 μM) for 24 h or left untreated. […]

Data set [7] concerns tyrosinase. The experiment in a line: Tyrosinase expression by Western blot (αPEP7), with or without NDP-MSH. Type of data set: cell-based, human. As for the experimental part: Control HBL cells or cells grown in the presence of CAME (25 µM) or LCAME (25 or 50 µM) were stimulated for 48 h with a potent analogue of αMSH ([Nle^4,D-Phe^7]-α-MSH (NDP-MSH), 10^−7 M). Use of the 50 μM concentration of CAME was avoided since this concentration was somewhat cytotoxic as shown above. Expression of tyrosinase was then evaluated by Western blot using a specific antibody directed against tyrosinase (αPEP7). […] However, other mechanisms such as interference with activation and/or functional coupling of the melanocortin 1 receptor responsible for αMSH actions cannot be ruled out and a complete study of these possibilities is beyond the scope of this work. Accordingly, interference of LCAME with MITF expression or activity remains speculative at this stage. In any case, this preliminary observation deserves confirmation using cultured normal human melanocytes and further mechanistic analysis, as it may further support the potential use of LCAME as a skin depigmenting agent. Indeed, LCAME may act at two different levels, on one hand by inhibiting preexisting tyrosinase by a competitive mechanism, and on the other hand by interfering with αMSH-dependent induction of tyrosinase expression.
Figure 5 Effect on tyrosinase expression of CAME (25 µM) and LCAME (25 and 50 µM). HBL melanoma cells were incubated with or without the indicated compounds and stimulated with NDP-MSH (10^−7 M). After 48 h of treatment, tyrosinase levels were compared by Western blotting, performed as described in Materials and Methods. […] For each experimental condition, the fold-increase of tyrosinase abundance upon NDP-MSH treatment relative to the corresponding control was determined by densitometric analysis (ImageJ software) and is shown below the figure.
After protein separation by SDS-PAGE, they were transferred from the gel to the membrane and immunochemical detection with anti-PEP7 was performed as previously described. Briefly, the filters were blocked for 1 h in 2% bovine serum albumin in 1% Tween 20 PBS and incubated overnight at 4 °C with primary antibodies (1:4000 dilution). The filters were washed and further incubated with peroxidase-labeled mouse anti-rabbit IgG (1:5000 dilution). Staining and detection were done with ECL Plus Western Blotting Detection System chemiluminescent substrate (Thermo Fisher Scientific, Waltham, MA, USA). Images were acquired in a Fusion Solo.6S system (Vilber-Lourmat, Marne La Vallée, France). Signal intensities were estimated with ImageJ (National Institutes of Health, Bethesda, […], USA) in independent blots, and normalized with the corresponding loading controls (obtained by staining the membranes with an anti-ERK2 antibody).
(In general: A western blot detects proteins with antibodies after separation by electrophoresis.)

Data set [8] deals with T1, tyrosinase from HBL human melanoma cells (Homo sapiens, UniProt P14679).
T1 construct: endogenous in cells; host or cells: HBL human melanoma cells (detergent-solubilized cell extract)
T1 sequence (P14679 19-529): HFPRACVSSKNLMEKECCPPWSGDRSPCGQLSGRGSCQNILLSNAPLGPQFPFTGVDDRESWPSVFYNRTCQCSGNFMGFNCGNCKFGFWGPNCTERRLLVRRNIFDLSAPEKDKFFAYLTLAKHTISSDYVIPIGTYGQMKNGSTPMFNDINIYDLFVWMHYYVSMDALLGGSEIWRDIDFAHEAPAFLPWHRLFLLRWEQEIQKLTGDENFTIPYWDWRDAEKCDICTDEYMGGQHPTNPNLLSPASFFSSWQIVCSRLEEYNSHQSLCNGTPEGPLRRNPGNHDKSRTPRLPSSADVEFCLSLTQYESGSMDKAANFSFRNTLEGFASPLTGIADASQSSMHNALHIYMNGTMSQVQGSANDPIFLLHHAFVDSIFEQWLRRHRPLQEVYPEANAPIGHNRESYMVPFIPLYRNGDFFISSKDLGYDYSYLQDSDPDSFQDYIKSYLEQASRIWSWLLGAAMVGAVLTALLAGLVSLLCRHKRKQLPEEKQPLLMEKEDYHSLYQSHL
The data set is described as follows: DO activity of human tyrosinase in HBL cell extracts (MBTH assay, 490 nm). It counts as biochemical. Conditions: HBL cell extracts. How it is done: In further experiments, the effect of LCAME and LCA was investigated on extracts from HBL human melanoma cells expressing tyrosinase, and the inhibition of DO activity was evaluated. DO activity was determined according to Winder and Harris with some minor modifications: cell extracts were incubated with 3-methyl-2-benzothiazolinone hydrazone (MBTH) and absorbance at 490 nm was measured every 10 min for 1 h.
Cells were solubilized in 1% Igepal, 1% phenylmethylsulfonyl fluoride, 50 mM phosphate buffer (pH 6.8) and centrifuged at 2000 rpm for 5 min.
DO activity determinations were performed according to Winder and Harris with minor modifications. Briefly, cell extracts (usually 50–100 µg protein/assay) were incubated with 5 mM MBTH and 2.5 mM L-DOPA in 50 mM phosphate buffer pH 6.8 in the presence of the indicated concentrations of the compound of choice in a 96-wells plate. DO activity was measured spectrophotometrically in a microplate reader every ten minutes for one hour and was expressed as the slopes calculated with the GraphPad Prism 7 software (Linear Regression, San Diego, CA, USA).
For the analysis of kinetic parameters, the assays were run as above, using different concentrations of L-DOPA (from 0.1 to 2.0 mM) and of the inhibitor (0, 10 and 25 μM) to build the Lineweaver–Burk plot.

Data set [9] concerns T2, human tyrosinase.
T2 construct: endogenous in cells
The data set is described as follows: TH activity of human tyrosinase. It counts as biochemical. Conditions: compared with DO activity.

The target in data set [10] is mushroom tyrosinase. Also on record: method as in PMID 31105178. The settings on record: mushroom enzyme; read-out: IC50 (TH Activity); cited from earlier work.
Data set [11] concerns mushroom tyrosinase. Set-up: method as in PMID 31105178. Conditions: cited from earlier work. The source holds these as a separate data set.

Where “and” joins values, the source holds several entries; their conditions need not be identical. Identical values can stand only once. Like-named read-outs stand apart in the source and are kept apart here.

In the case of `O=C(O)/C=C/c1ccc(O)c(O)c1` [CA, caffeic acid], in data set [1], the “cytotoxicity (MTT)” value is recorded as “not cytotoxic”. Further, in [2] (same conditions as LCA), the “effect on tyrosinase activity” value is given as “did not show any effect”.
The IC50 is the concentration that gives 50% inhibition. For `COC(=O)/C=C/c1ccc(O)c(O)c1` [CAME, caffeic acid methyl ester, reference compound], the values for the IC50 in [3] and in [4] were 155 ± 7 µM and 79 ± 7 µM, respectively. In addition, the “consumption of the inhibitor” value in [5] (absence of L-DOPA) is “almost complete”; in data set [5] (presence of L-DOPA), “extremely low”. The “cell viability (MTT)” value in [1] (50 μM) was “reduced cell viability”. Also, in [6], the “cell morphology (phase contrast)” value is recorded as “became rounded”. In addition, in data set [7] (25 µM, NDP-MSH 10^−7 M, 48 h), the “NDP-MSH-mediated induction of tyrosinase expression” value is recorded as “similarly induced”. The basal tyrosinase expression result in data set [7] (HBL cells, CAME 25 µM or LCAME 25 or 50 µM, Western blot) is “No significant changes”.
Regarding `O=C(O)/C=C/c1ccc(O)c(O)c1SCCC(S)CCCCC(=O)O` (stereo not drawn) [LCA, 2-S-lipoylcaffeic acid], the IC50 in [8] (DO activity, L-DOPA 2.5 mM, read-out: IC50 (Mean ± SEM)) is 76 µM and 76.2 µM; in data set [2] (mushroom enzyme, read-out: IC50 (DO Activity)) it was 3.22 ± 0.02 µM; in [10], 2 ± 0.1 µM. Also, the “inhibitory effect on DO activity” value in [8] (fixed concentration of 25 μM) is on record as “significant inhibitory effect”. Further, in data set [9], the “effect on TH activity of human tyrosinase” value is listed as “much smaller”. Further, the “cytotoxicity (MTT)” value in data set [1] was “not cytotoxic”. Further, the “nature of tyrosinase inhibition (Lineweaver–Burk plots)” value in [2] was “mixed type mechanism”. Moreover, the substrate of tyrosinase entry in data set [11] is reported as “not to be a substrate of tyrosinase”.
